This note sets out measurements from patent US12466849B2, “Anti-viral and anti-tumoral compounds” (YEDA RESEARCH AND DEVELOPMENT CO. LTD, priority 2020, dated 2025).

Structures are written as SMILES. pEC50: −log10 of the molar value. ≈ marks a conversion by molar mass, not a printed value. A value given as a limit tells only on which side of the number the result lay.

The test system of series [1] is Influenza B/Florida/4/2006 (Yamagata). The settings on record: for SI50 (SI): Influenza B, SI = CC50/EC50.
The test system of series [2] is Rift Valley fever virus (RVFV).
Series [3] concerns Tacaribe virus (TCRV, TRVL-11573). On the set-up: SI50 (SI): unit not given beside the values.
Series [4] deals with respiratory syncytial virus (RSV, A2). Conditions: for SI50 (SI): RSV, SI = CC50/EC50.
For series [5], the system named is influenza/California/07/2009 (H1N1)pdm09. The settings on record: for SI50 (SI): Influenza(H1N1), SI = CC50/EC50.
In series [6] the test system is Human cytomegalovirus (HCMV), strain AD169. The settings on record: for pEC50 / EC90: drug concentration 0.048-150 μM.
In series [7] the test system is Epstein-Barr virus (EBV), Akata strain. Further details: SI50 / SI90: unit not given beside the values.
The subject of series [8] is BK virus (BKV), Gardner strain. On the set-up: SI50 / SI90: unit not given beside the values.
The test system of series [9] is dengue virus-2 (DENV-2, New Guinea C). Conditions: SI = CC50/EC50.
The test system of another series is MERS-CoV (EMC). Format: cell-based. Conditions: SI = CC50/EC50.
Series [10] has as its system enterovirus-68 (EV-68, US/DY/14-18953). The settings on record: for SI50 (SI): EV-68, SI = CC50/EC50.
Series [11] relates to SARS-CoV-2 (USA-WA1/2020). The settings on record: for SI50 (SI): SARS-CoV-2, SI = CC50/EC50.
A further series concerns HCMV AD169. Kind of series: HCMV plaque reduction assay, MRC-5 cells, strain AD169. Format: cell-based, Human cytomegalovirus. The settings on record: hCMV AD169, MRC5 cells, plaque assay, 6-days duration.
In series [12] the target is SARS-Cov2 RdRp (nsp12-nsp7-nsp8) (Severe acute respiratory syndrome coronavirus 2, UniProt P0DTD1). The series is classed as biochemical. Conditions: primer extension; analog at 100 uM, printed 100 mM.
Series [13] is described as follows: in vitro. The settings on record: both, human, plasma.
Series [14] can be described thus: in vitro. Conditions: male, SD, rat, plasma.

Regarding `NC(=O)c1ncn([C@@H]2O[C@H](CO)[C@@H](O)[C@H]2O)n1` [Ribavirin, Ribavirin (Virazole), reference compound], the CC50 is greater than 1000 µg/mL with influenza A(H1N1); greater than 1000 µg/mL in the series with influenza A(H5N1) (MDCK cells without virus, positive control); greater than 1000 µg/mL in series [1]; 820 µg/mL (≈ 3.36 mM) in the series with TCRV; 870 µg/mL (≈ 3.56 mM) in series [2] (Vero 76 cells without virus, positive control); greater than 1000 µg/mL in [3]. For the same compound, the CC50 is 42 µg/mL (≈ 0.172 mM) in the series on RSV, 310 µg/mL in series [4], greater than 1000 µg/mL with Influenza B and greater than 1000 µg/mL in [5]. In addition, the EQ50 with influenza A(H1N1) was 4.6 µg/mL; in the series with influenza A(H5N1) (influenza A(H5N1), MDCK cells, positive control) it was 1.8 µg/mL; in the series with TCRV, 13 µg/mL; in series [2] (RVFV, Vero 76 cells, positive control) it was 14 µg/mL; in the series with RSV it was 7.3 µg/mL; in the series with Influenza B, 1.4 µg/mL. Moreover, the SI was greater than 220 in the series with influenza A(H1N1); greater than 560 with influenza A(H5N1); 63 with TCRV; 62 in series [2]; 5.8 in the series with RSV; greater than 710 in the series with Influenza B. The “SI50 (SI)” value is recorded as greater than 130 in series [1], greater than 190 in [3], 16 in series [4] and greater than 130 in [5].

In the series with JC virus (JCV), `C[C@H](Cn1cnc2c(N)ncnc21)OCP(=O)(O)O` [TNV, reference compound] gave a CC50 greater than 150 µM, a pEC50 of less than 3.82 and an EC90 greater than 150 µM. In [6], this compound gave a CC50 greater than 150 µM, a pEC50 of less than 3.82 and an EC90 greater than 150 µM. In [7], this compound had a CC50 greater than 150 µM, a pEC50 of 4.34, an EC90 greater than 150 µM and an SI50 greater than 3. The compound further came in with an SI90 in series [7] of 1. In series [8], the CC50 was greater than 150 µM, the EC90 is greater than 150 µM and the SI90 was 1.

As to `Nc1ccn([C@H]2CC[C@@H](CO)O2)c(=O)n1` [2-3 Dideoxycytidine], in the series on adenovirus-5 (Ad5), the CC50 was greater than 100 µg/mL, the EQ50 was 1.8 µg/mL and the SI is greater than 56.

On to `CC(C)(C)C(=O)SCCOP(=O)(OCCSC(=O)C(C)(C)C)OCC1=CC(O)C(n2ccc(N)nc2=O)O1` (stereo not drawn) [SATE-ddhC], for which the CC50 was greater than 1000 µM in series [1]; 210 µM in series [3]; 124 µM in series [7]; greater than 100 µM in [10]; 540 µM in [4]; greater than 150 µM in series [8]. The figures for the CC50 in series [11] and in series [5] were 410 µM and 550 µM, respectively. Moreover, the “SI50 (SI)” value (in series [1]; in series [9]; with MERS-CoV (EMC); in series [3]; in series [10]; in series [4]) was 0 throughout. The “SI50 (SI)” value in [11] and in series [5] was 0 throughout. Besides, the Activity result in series [7] is “MOD (key: NA (Not Active) SI50 = 0-3.9; MOD (Moderately Active) SI50 = 4-9.9; HI (Highly Active) SI50 = ≥10)”; in series [8] it was “NA (key: NA (Not Active) SI50 = 0-3.9; MOD (Moderately Active) SI50 = 4-9.9; HI (Highly Active) SI50 = ≥10)”. Also, the figures for the pEC50 in series [7] and in series [8] were 4.73 and 4.02, respectively. For the same compound, the EC90 in series [7] was greater than 30 µM; in [8], greater than 150 µM. For the same compound, the SI50 in [7] is 7; in [8], greater than 2. The results for the SI90 in [7] and in [8] were less than 4 and 1, respectively. Further, the “activity against EBV (in words)” value in series [7] is given as “moderately active”.

Turning to `Nc1nc2c(ncn2COC(CO)CO)c(=O)[nH]1` [Ganciclovir, reference compound], the pEC50 with HCMV AD169 was 5.13.

In the case of `O=c1ccn([C@@H]2O[C@H](COP(=O)(O)OP(=O)(O)OP(=O)(O)O)C[C@H]2O)c(=O)[nH]1` [3′-dUTP, 3′-deoxyuracil triphosphate, reference compound], in series [12], the “incorporation into RNA by SARS-Cov2 RdRp (in words)” value is given as “same level of incorporation as ddhUTP”.

Take `Nc1nc2c(ncn2COC(CO)CO)c(=O)[nH]1` [GCV]: in [6], the CC50 was greater than 150 µM, the pEC50 was 6.72 and the concentration for an effect of 90% (EC90) is greater than 150 µM.

`Nc1ccn([C@@H]2OC(CO)=C[C@H]2O)c(=O)n1` [ddhC, ddh cytidine]: the “activity against enterovirus EV-68 (in words)” value with enterovirus-68 (EV-68) is “exhibits some activity”.

In the case of `CC(C)(C)C(=O)SCCOP(=O)(OCCSC(=O)C(C)(C)C)OCC1=CC(O)C(n2cnc3c(N)ncnc32)O1` (stereo not drawn) [SATE-ddhA], the CC50 in [1] came out at 180 µM; in series [3] it was 58 µM; in series [7], 55.8 µM; in series [10] it was 2 µM; in series [4] it was 170 µM; in [8], 89.7 µM. Also, the CC50 amounted to 49 µM in series [11] and 180 µM in series [5]. Further, the “SI50 (SI)” value (in series [1]; in series [9]; in the series on MERS-CoV (EMC); in [3]; in series [10]; in [4]) was 0 in each case. Further, the “SI50 (SI)” value in series [11] and in series [5] was 0 throughout. For the same compound, the Activity result in series [7] was “MOD (key: NA (Not Active) SI50 = 0-3.9; MOD (Moderately Active) SI50 = 4-9.9; HI (Highly Active) SI50 = ≥10)”; in series [8] it was “NA (key: NA (Not Active) SI50 = 0-3.9; MOD (Moderately Active) SI50 = 4-9.9; HI (Highly Active) SI50 = ≥10)”. Besides, the figures for the pEC50 in series [7] and in series [8] were 4.89 and less than 4.52, respectively. The EC90 was 26.8 µM in series [7] and greater than 30 µM in [8]. In addition, the SI50 in [7] was 4; in series [8], less than 3. The SI90 in [7] is given as 2; in [8] it was less than 3. In addition, in [7], the “activity against EBV (in words)” value is “moderately active”.

Take `CC(C)[N+](C)(CCOC(=O)C1c2ccccc2Oc2ccccc21)C(C)C` [Propantheline]: the half-life at 0.75 µM in the series “in vitro [13]” is 0.28 h.

For `COc1ccc([C@@H]2Sc3ccccc3N(CCN(C)C)C(=O)[C@@H]2OC(C)=O)cc1` [Diltiazem], the half-life at 0.75 µM in “in vitro [14]” was 2.08 h.

As to `CC(C)(C)C(=O)SCCOP(=O)(OCCSC(=O)C(C)(C)C)OCC1=CC(O)C(n2cnc3c(=O)[nH]cnc32)O1` (stereo not drawn) [SATE-ddhI], the CC50 in [1] was greater than 1000 µM; in [3] it was 900 µM; in [7], greater than 150 µM; in [10], greater than 100 µM; in [4], greater than 1000 µM; in series [8] it was greater than 150 µM. Moreover, the CC50 in series [11] was 530 µM; in [5], greater than 1000 µM. Further, the “SI50 (SI)” value (in series [1]; in series [9]; in the series with MERS-CoV (EMC); in [3]; in series [10]; in series [4]) was 0 throughout. In addition, the “SI50 (SI)” value in series [11] and in [5] was 0 throughout. Further, the Activity entry in [7] is given as “MOD (key: NA (Not Active) SI50 = 0-3.9; MOD (Moderately Active) SI50 = 4-9.9; HI (Highly Active) SI50 = ≥10)”; in series [8], “NA (key: NA (Not Active) SI50 = 0-3.9; MOD (Moderately Active) SI50 = 4-9.9; HI (Highly Active) SI50 = ≥10)”. Moreover, the results for the pEC50 in series [7] and in series [8] were 4.73 and 3.94, respectively. For the same compound, the values for the EC90 in [7] and in series [8] were 81.9 µM and greater than 150 µM, respectively. Besides, the results for the SI50 in [7] and in series [8] were greater than 8 and greater than 1, respectively. For the same compound, the SI90 was greater than 2 in series [7] and 1 in series [8]. Also, the “activity against EBV (in words)” value in [7] is “moderately active”.

Turning to `C#C[C@@]1(O)[C@H](O)[C@@H](CO)O[C@H]1n1ccc2c(N)ncnc21` [NITD008, reference compound], in the series on Zika virus, the CC50 turned out to be 44 µg/mL (≈ 0.152 mM), the EQ50 was 1.8 µg/mL and the SI stood at 24.
